Data: patent US20220305079A1, “THERAPEUTIC PEPTIDES” (COHBAR, INC., priority 2019, published 2022)
Square brackets hold non-standard residues; d marks the D form. Ends that are not written are not given here.

Key:
Mouse 3T3-L1 adipocytes = experiment: Free Fatty Acid Levels in 3T3-L1 Adipocytes; details: for Free Fatty Acid Levels in 3T3-L1 Adipocytes Expressed as a Percent Isoproterenol Control, Percent of Control Activity: test peptides 25 μM, 20-22 hours then isoproterenol (1 nM) 3 hours
Experimental: Mouse 3T3-L1 adipocytes were seeded at 3,000 cells per well in 96-well plates in Pre-adipocyte Medium (Zen-Bio, Durham, N.C.) and grown to confluence at 37° C. in a humidified atmosphere of 5% CO2/95% air. Two days after confluence, cells were placed in Adipocyte Differentiation Medium (Zen-Bio, Durham, N.C.) and cultured for three additional days at 37° C. in a humidified atmosphere of 5% CO2/95% air. The culture media was then replaced with Adipocyte Maintenance Medium (Zen-Bio) and the cells maintained for an additional 9-12 days at 37° C. in a humidified atmosphere of 5% CO2/95% air with partial medium replacement every other day. Following 12-15 days' differentiation, test peptides were added to a final concentration of 25 μM and incubated for 20-22 hours in Adipocyte Maintenance Medium. After 20-22 hours, isoproterenol (1 nM) was added to all wells except untreated controls and test peptides were replenished. Cells were incubated for a further 3 hours in Assay Buffer (Zen-Bio). Free fatty acid concentrations in the media were determined using a Free Fatty Acid Assay Kit (Zen-Bio) according to the manufacturer's instructions using a plate reader (540 nm). Absorbance values were corrected for untreated background and expressed relative to isoproterenol treated cells. Treatment with isoproterenol (1 nM) alone was used as the free fatty acid level stimulatory control. The relative standard deviation of the isoproterenol control was <10%.

[1] = tested on: MDA-MB-231 human breast cancer cell line; experiment: Caspase 3/7 Activity in MDA-MB-231 Cells (Caspase-Glo 3/7 Assay); type: cell-based; details: test peptides at 10 μM, 18 hours, relative to DMSO control
Experimental: The effect of the peptides on cell death/survival can be assessed using a caspase-3 assay. Peptides were dissolved with DMSO at 10 mM stock. […] Staurosporine (Selleckchem) was dissolved with DMSO at 1 mM stock. Caspase-Glo 3/7 Assay Reagent was purchased from Promega (Madison, Wis.). MDA-MB-231 human breast cancer cell line was purchased from American Type Culture Collection (Manassas, Va.). MDA-MB-231 cells were grown in DMEM Medium supplemented with 10% FBS. 100 μg/ml penicillin and 100 μg/ml streptomycin were added to the culture medium. […] 25 μl of Caspase-Glo 3/7 Assay Reagent was added to each well and incubated at 37° C., 5% CO2 for 1 hour. Luminescence for each sample well on the plate was measured by Envision 2104 Multilabel Reader (PerkinElmer, Santa Clara, Calif.). Activity was calculated relative to DMSO control.

[2] = tested on: MCF-7 human breast cancer cell line; experiment: MTS Assay in MCF-7 Cells (cell viability); details: test peptides at 10 μM, 72 hours, relative to DMSO control
Experimental: (§1) Peptides and reference compound staurosporine (Selleckchem) were dissolved with DMSO at 10 mM stock. CellTiter 96® AQueous One Solution Reagent (MTS assay reagent) was purchased from Promega (Madison, Wis.). MCF-7 human breast cancer cell line was purchased from American Type Culture Collection (Manassas, Va.). MCF-7 cells were grown in EMEM Medium supplemented with 10% FBS and 0.01 mg/ml human recombinant insulin. 100 μg/ml penicillin and 100 μg/ml streptomycin were added to the culture medium. […] 5 μl of CellTiter 96® AQueous One Solution Reagent (MTS assay reagent) was added to each well and incubated at 37° C., 5% CO2 for 5 hours. Absorbance at 492 nm was recorded by Envision 2104 Multilabel Reader. Treatment with DMSO alone was used as the cell viability activity control.

[3] = tested on: MDA-MB-231 human breast cancer cell line; experiment: MTS Assay in MDA-MB-231 Cells (cell viability); type: cell-based; details: 72 hours, relative to DMSO control; test concentration not given
Experimental: (§2) Test compounds and reference compound staurosporine (Selleckchem) were all dissolved with DMSO at 10 mM stock. […] Activity was calculated relative to DMSO control. […] Cell viability was 3% of the DMSO control value for Staurosporine (10 uM).

[4] = MTS Assay in MCF-7 Cells (cell viability); details: human
Experimental: as §1

[5] = MTS Assay in MDA-MB-231 Cells (cell viability); type: cell-based, human; details: human; Staurosporine 10 uM, positive control, MDA-MB-231 cells; read-out: Cell viability, % of the DMSO control value
Experimental: as §2

Compound | Free Fatty Acid Levels in 3T3-L1 Adipocytes Expressed as a Percent Isoproterenol Control, Percent of Control Activity (Mouse 3T3-L1 adipocytes) [%] | other results
10 (WFDYFAMSPSADEGLTL) [compound 10] | 55 | 
20 (LFFRSSKLQYGRLFRSA) [compound 20] | 73 | 
insulin [reference compound] |  | Free fatty acid levels, % of the isoproterenol control value (Mouse 3T3-L1 adipocytes; insulin 100 nM, positive control): < 5%
2 (MTHQSHAYHIVKPSP) [compound 2] | 95 | Caspase 3/7 Activity in MDA-MB-231 Cells, Percent of Control Activity [1]: 51%; MTS Assay in MCF-7 Cells, Percent of Control Activity [2]: 71%; MTS Assay in MDA-MB-231 Cells, Percent of Control Activity [3]: 85%
13 (VKGDSKYSEACRRVK) [compound 13] | 113 | 
18 (VLFFRSSKLQYGRLFRSLVG) [compound 18] | 84 | 
12 (MVKGDSKYSEACRRVK) [compound 12] | 135 | Caspase 3/7 Activity in MDA-MB-231 Cells, Percent of Control Activity [1]: 52%; MTS Assay in MCF-7 Cells, Percent of Control Activity [2]: 50%; MTS Assay in MDA-MB-231 Cells, Percent of Control Activity [3]: 80%
4 (THQSH[dA]YHIVKPSP) [compound 4] | 134 | 
23 (VWLRLSGSKVEWVWG) [compound 23] | 71 | 
14 (VKGDSKYSEACRRV) [compound 14] | 112 | 
CN[C@@H]1C[C@H]2O[C@@](C)([C@@H]1OC)n1c3ccccc3c3c4c(c5c6ccccc6n2c5c31)C(=O)NC4 [staurosporine, reference compound] |  | viability at 72 h, 10 µM [4]: < 5%; viability at 72 h, 10 µM [5]: 3%
19 (VLFFRSSKLQYGRLFRSLA) [compound 19] | 95 | 
24 (VWLRLSGSKVEWVW; not fully specified) [compound 24] | 81 | 
22 (MVWLRLSGSKVEWVWG) [compound 22] | 93 | Caspase 3/7 Activity in MDA-MB-231 Cells, Percent of Control Activity [1]: 31%; MTS Assay in MCF-7 Cells, Percent of Control Activity [2]: 47%; MTS Assay in MDA-MB-231 Cells, Percent of Control Activity [3]: 75%
25 ([dA]WLRLSGSKVEWV) [compound 25] | 93 | 
8 (WFDYFCMSPSIDEGLTLLV) [compound 8] | 45 | 
3 (THQSHAYHIVKPSP; not fully specified) [compound 3] | 118 | 
7 (MWFDYFCMSPSIDEGLTLLV) [compound 7] | 104 | Caspase 3/7 Activity in MDA-MB-231 Cells, Percent of Control Activity [1]: 29%; MTS Assay in MCF-7 Cells, Percent of Control Activity [2]: 63%; MTS Assay in MDA-MB-231 Cells, Percent of Control Activity [3]: 81%
17 (MVLFFRSSKLQYGRLFRSLVG) [compound 17] | 75 | Caspase 3/7 Activity in MDA-MB-231 Cells, Percent of Control Activity [1]: 43%; MTS Assay in MCF-7 Cells, Percent of Control Activity [2]: 40%; MTS Assay in MDA-MB-231 Cells, Percent of Control Activity [3]: 75%
5 (HQSH[dA]YHIVKPSP) [compound 5] | 111 | 
15 (VKGDSKYSEACR) [compound 15] | 128 | 
9 (WFDYFCMSPSIDEGLTL) [compound 9] | 35 | 
